The values below come from US4328202A, “Ionic 5-C-substituted 2,4,6-triiodoisophthalic acid derivatives” (Schering, A.G., priority 1980, dated 1982).

Series [1] has as its system Rat. In words: Neural compatibility after intracerebral injection in rats (24 h observation; ED50 = toxic effects in 50% of the animals). Type of series: in vivo. Conditions: intracerebrally, meglumine salt in water, probit analysis. As for the experimental part:
(§1) Table I presents a comparison of the conventional contrast media iothalamic acid (E) and diatrizoic acid (F) with 5-Carbamoyl-3-N-methylcarbamoyl-2,4,6-triiodobenzoic acid (D) of this invention, in terms of neural compatibility after intracerebral or intracisternal administration, as well as their general compatibility.
(§2) The compounds are administered, as meglumine salts dissolved in water, to 10 rats each in varying doses. After intracerebral and intracisternal injection, the animals are observed for 24 hours; the ED50 is denoted as the dose causing toxic effects (strong behavioral anomalies and disturbances in motor coordination, convulsions, or death) in 50% of the animals. After intravenous injection, the observation time was 7 days. ED50 and LD50 were calculated by probit analysis.

In series [2] the test system is Rat. In words: Neural compatibility after intracisternal injection in rats (24 h observation; ED50 = toxic effects in 50% of the animals). Type of series: in vivo. Conditions: intracisternally, meglumine salt in water, probit analysis. As for the experimental part:
as §1, §2

A short description of series [3]: Iodine content of acid. To be noted: of the free acid. Type of series: physicochemical.
Series [4] relates to Rat. In words: General compatibility after intravenous injection in rats (7 days observation). Type of series: in vivo. Conditions: intravenously, meglumine salt in water, probit analysis. As to the method: as §1, §2

Molecules are shown by their SMILES.

In the case of `CC(=O)Nc1c(I)c(NC(C)=O)c(I)c(C(=O)O)c1I` [F, diatrizoic acid], the results for the “ED50 (strong behavioral anomalies, disturbances in motor coordination, convulsions, or death)” value (“ED50” for short) in series [1] and in series [2] were 12 mg I/kg and 3.0 mg I/kg, respectively. The “Iodine content of acid” value in series [3] amounted to 62.1%. The LD50 in series [4] is 7.3 g I/kg.

For `CNC(=O)c1c(I)c(NC(C)=O)c(I)c(C(=O)O)c1I` [E, iothalamic acid], the “ED50” value in series [1] was 36 mg I/kg; in series [2] it was 10.6 mg I/kg. The LD50 in series [1] turned out to be 52 mg I/kg; in series [2] it was 58 mg I/kg; in series [4] it was 7.4 g I/kg. In addition, the “Iodine content of acid” value in series [3] is on record as 62.1%.

Regarding `CNC(=O)c1c(I)c(C(N)=O)c(I)c(C(=O)O)c1I` [D, 5-Carbamoyl-3-N-methylcarbamoyl-2,4,6-triiodobenzoic acid], the “ED50” value in series [1] is recorded as 42 mg I/kg; in series [2] it was 13.2 mg I/kg. Moreover, the LD50 worked out at 66 mg I/kg in series [1], 65 mg I/kg in series [2] and 8.7 g I/kg in series [4]. Besides, in series [3], the “Iodine content of acid” value is given as 63.5%.
